Experiment: xn = mol fraction of the nth substance listed
Conditions: 100 kPa

CC(=O)[O-].CCC[NH3+] + CN1CCCC1=O
speed of sound [m/s]
Conditions | 293.15 K | 298.15 K | 303.15 K | 308.15 K | 313.15 K | 318.15 K | 323.15 K | 328.15 K | 333.15 K
x2 = 0 | 1504.2 | 1490.7 | – | 1461.9 | 1447.5 | – | – | 1405.6 | –
x2 = 0.05 | 1506.6 | 1493.5 | – | 1464 | – | 1434.5 | 1420.4 | 1406.6 | 1392.6
x2 = 0.0978 | 1509.6 | 1495.7 | 1481.1 | 1466.8 | 1451.7 | 1436.1 | 1421.4 | 1407.6 | 1393.3
x2 = 0.1978 | 1515 | 1501 | 1485.6 | 1471.1 | – | 1439.8 | 1424.3 | 1410 | 1395.1
x2 = 0.3095 | 1522.4 | 1506.4 | 1491.6 | 1474.8 | 1459.3 | – | – | 1413.1 | 1397.7
x2 = 0.3891 | 1527.5 | 1511.4 | 1495.3 | 1479 | 1462.8 | 1446.7 | – | – | 1399.2
x2 = 0.4931 | 1533.3 | 1517 | 1500.3 | 1484.2 | 1467.1 | 1451.1 | 1433.2 | 1417.5 | 1401.1
x2 = 0.599 | 1539.9 | 1521.9 | – | 1488.3 | 1471.5 | 1453.8 | 1436.8 | 1420.2 | –
x2 = 0.7001 | 1545.8 | 1527.3 | – | 1492 | 1474.8 | – | 1439.8 | 1422.2 | 1405.1
x2 = 0.7998 | – | 1533.1 | 1515.2 | 1497.2 | – | 1461.4 | – | – | 1407.8
x2 = 0.891 | – | 1538.6 | 1519.6 | 1501.1 | 1482.7 | 1463.9 | 1445.1 | 1427.5 | 1409

CCC[NH3+].O=C[O-] + CN1CCCC1=O
speed of sound [m/s]
Conditions | 293.15 K | 298.15 K | 303.15 K | 308.15 K | 313.15 K | 318.15 K | 323.15 K | 328.15 K | 333.15 K
x2 = 0 | – | 1540.7 | – | 1519.8 | 1509.5 | 1499.2 | 1489.1 | 1479 | 1469
x2 = 0.0494 | 1556.8 | 1546 | 1535.1 | – | 1513.7 | 1503.1 | – | 1482 | 1471.6
x2 = 0.1047 | 1557.7 | 1546.3 | 1534.9 | 1523.6 | – | 1501.3 | 1490.2 | 1479.3 | 1468.4
x2 = 0.1953 | 1559.5 | 1547.5 | 1535.4 | 1523.3 | 1511.4 | 1499.5 | 1487.7 | 1475.9 | 1464.2
x2 = 0.3021 | – | 1547.4 | 1534.2 | – | 1508.1 | 1495.2 | 1482.3 | 1469.4 | 1456.6
x2 = 0.4205 | 1563.9 | – | – | 1520.9 | 1506.7 | 1492.6 | 1478.5 | 1464.5 | 1450.5
x2 = 0.5063 | 1566 | 1550.9 | 1535.7 | 1520.7 | 1505.7 | – | 1475.9 | 1461.1 | 1446.3
x2 = 0.6001 | 1565.4 | 1549.7 | 1533.7 | 1517.8 | 1501.9 | 1486.2 | – | – | 1439.1
x2 = 0.7075 | 1565 | 1548.1 | 1531.2 | 1514.3 | 1497.6 | 1480.9 | 1464.2 | 1447.5 | –
x2 = 0.7986 | – | – | 1529.2 | 1511.6 | – | 1476.8 | 1459.5 | 1442.2 | –
x2 = 0.9048 | – | 1545.7 | 1527.6 | – | 1491.4 | 1473.5 | 1455.7 | 1438 | 1420.3

CC(=O)[O-].CCC[NH3+] + O
speed of sound [m/s]
Conditions | 293.15 K | 298.15 K | 303.15 K | 308.15 K | 313.15 K | 318.15 K | 323.15 K | 328.15 K | 333.15 K
x2 = 0 | 1504.2 | 1490.7 | 1476.6 | 1461.9 | 1447.5 | 1433.3 | – | 1405.6 | 1391.1
x2 = 0.05 | 1506.6 | 1493.5 | 1478.6 | 1464 | 1449.1 | 1434.5 | 1420.4 | 1406.6 | 1392.6
x2 = 0.0978 | 1509.6 | 1495.7 | – | 1466.8 | 1451.7 | 1436.1 | – | 1407.6 | 1393.3
x2 = 0.1978 | – | – | 1485.6 | – | – | 1439.8 | 1424.3 | – | 1395.1
x2 = 0.3095 | – | 1506.4 | 1491.6 | 1474.8 | 1459.3 | – | 1428 | 1413.1 | 1397.7
x2 = 0.3891 | 1527.5 | 1511.4 | 1495.3 | 1479 | 1462.8 | 1446.7 | 1430.3 | 1414.7 | 1399.2
x2 = 0.4931 | – | 1517 | 1500.3 | – | – | – | 1433.2 | 1417.5 | –
x2 = 0.599 | 1539.9 | 1521.9 | 1505.3 | 1488.3 | 1471.5 | – | 1436.8 | 1420.2 | 1402.8
x2 = 0.7001 | 1545.8 | 1527.3 | 1510 | 1492 | 1474.8 | 1457.5 | 1439.8 | 1422.2 | 1405.1
x2 = 0.7998 | 1552.5 | – | – | 1497.2 | 1478.8 | 1461.4 | – | 1424.9 | 1407.8
x2 = 0.891 | – | 1538.6 | 1519.6 | 1501.1 | 1482.7 | 1463.9 | – | – | 1409

CCC[NH3+].O=C[O-] + O
speed of sound [m/s]
Conditions | 293.15 K | 298.15 K | 303.15 K | 308.15 K | 313.15 K | 318.15 K | 323.15 K | 328.15 K | 333.15 K
x2 = 0 | 1552 | 1540.7 | 1530.2 | – | 1509.5 | 1499.2 | 1489.1 | 1479 | 1469
x2 = 0.0505 | 1557.1 | 1546.6 | 1536.1 | 1525.7 | 1515.4 | – | 1495.1 | 1485 | 1474.9
x2 = 0.1036 | 1565.1 | 1554.7 | 1544.2 | 1533.9 | 1523.7 | 1513.5 | 1503.4 | 1493.4 | 1483.2
x2 = 0.2456 | 1588.7 | 1578.5 | 1568.5 | – | 1548.1 | 1538 | 1528 | – | –
x2 = 0.2838 | – | 1585.9 | 1575.7 | 1565.6 | – | 1545.4 | – | 1525.4 | –
x2 = 0.429 | 1615.5 | 1605.7 | – | – | 1575.8 | 1566 | 1556 | 1546.1 | 1536
x2 = 0.5184 | 1632.4 | – | 1612.8 | 1603 | 1593 | 1583.1 | 1573.2 | 1563.3 | –
x2 = 0.6064 | – | – | 1635.4 | 1625.7 | 1616 | 1606.2 | 1596.4 | – | 1576.6
x2 = 0.6994 | 1687.5 | 1678.4 | 1669.2 | 1659.9 | 1650.5 | 1641 | 1631.5 | 1621.8 | 1611.9
x2 = 0.8008 | 1727.2 | 1719.4 | 1711.3 | – | 1694.3 | – | 1676.4 | 1666.8 | 1657.3
x2 = 0.9026 | 1730 | 1725.8 | – | 1716.1 | 1710.7 | 1704.7 | 1698.3 | 1691.5 | 1684.3
